The values below come from EP0471345B1, “Determination of biogenous amines” (BOEHRINGER MANNHEIM GMBH, priority 1990, dated 1992).

Experiment in all cases: competitive ELISA: relative affinity and cross-reactivity of monoclonal antibodies against Histamin-ITCB
In general terms: In an ELISA, binding on a coated surface is turned into a signal by an enzyme label.

The subject of experiment [1] is monoklonaler Antikörper 1.68.168 gegen Histamin-ITCB. The settings on record: amount of Histamin-ITCB for 50 % signal drop (50 % IC) in ELISA; antibody 1.68.168.
From the text: (§1) Zur Ermittlung der Relativen Affinität werden Kompetitionskurven mit dem homologen Antigen ermittelt und ausgewertet.
(§2) Mikrotiterplatten werden mit 100 »l pro well einer Lösung aus 10 »g Thermo-SA-Streptavidin/ml (Herstellung nach EP-A 0269 092) in Puffer pH 9,6 eine Stunde bei Raumtemperatur beschichtet. Die Platten werden mit 0,9% Natriumchloridlösung gewaschen. […] Darauf werden 100 »l Probe in PBS eine Stunde bei Raumtemperatur inkubiert und erneut mit 0,9 % Natriumchloridlösung gewaschen. Es folgt eine weitere Inkubation (1 Stunde bei Raumtemperatur) mit 100 »l/well einer Lösung von 150 mU/ml eines Schaf-anti-Maus-IgG-Peroxidase-Konjugats (Boehringer Mannheim GmbH, Best.-Nr. 821489) in PBS/O,5 % RSA. Nach einem weiteren Waschschritt mit 0,9 % Natriumchloridlösung wird die Peroxidaseaktivität durch Zugabe von 100 »l/well einer ABTS®-Lösung (100 mg ABTS; 3,25 mmol/l Natriumperborat; 39,8 mmol/l Citronensäure; 60 mmol/l Natriumphosphat; pH 4,4-4,5) 30 min bei Raumtemperatur und anschließender Extinktionsmessung bei 405 nm bestimmt.
(§3) Die Kreuzreaktion wurde anschließend mit folgender Formel berechnet: [formula] C = Konzentration des jeweiligen Antigens, die zur Erreichung von 50 % des maximalen Signals erforderlich ist.
Experiment [2] relates to monoklonaler Antikörper 1.36.59 gegen Histamin-ITCB. Conditions: amount of Histamin-ITCB for 50 % signal drop (50 % IC) in ELISA; antibody 1.36.59.
From the text: as §1, §2, §3
For experiment [3], the system named is monoklonaler Antikörper 1.54.95 gegen Histamin-ITCB. Conditions: amount of Histamin-ITCB for 50 % signal drop (50 % IC) in ELISA; antibody 1.54.95.
From the text: as §1, §2, §3
The test system of experiment [4] is monoklonaler Antikörper 1.47.74 (ECACC 90071902) gegen Histamin-ITCB. The settings on record: amount of Histamin-ITCB for 50 % signal drop (50 % IC) in ELISA; antibody 1.47.74.
From the text: as §1, §2, §3
Experiment [5] deals with monoklonaler Antikörper 1.83.201 gegen Histamin-ITCB. The settings on record: amount of Histamin-ITCB for 50 % signal drop (50 % IC) in ELISA; antibody 1.83.201.
From the text: as §1, §2, §3
In experiment [6] the test system is monoklonaler Antikörper 1.97.235 gegen Histamin-ITCB. Conditions: amount of Histamin-ITCB for 50 % signal drop (50 % IC) in ELISA; antibody 1.97.235.
From the text: as §1, §2, §3
The test system of experiment [7] is monoklonaler Antikörper 1.25.53 gegen Histamin-ITCB. Conditions: amount of Histamin-ITCB for 50 % signal drop (50 % IC) in ELISA; antibody 1.25.53.
From the text: as §1, §2, §3
For experiment [8], the system named is monoklonaler Antikörper 1.17.44 (ECACC 90071901) gegen Histamin-ITCB. Conditions: amount of Histamin-ITCB for 50 % signal drop (50 % IC) in ELISA; antibody 1.17.44.
From the text: as §1, §2, §3

For the compound `O=C(O)c1cccc(NC(=S)NCCc2c[nH]cn2)c1` [Histamin-ITCB, N-(3-Carboxyphenyl)-N'-[2-(4-imidazolyl)ethyl]thioharnstoff], the “Relative Affinität zu Histamin-ITCB” value in experiment [1] is 1,4 ng/ml; in experiment [2] it was 1 ng/mL; in experiment [3] it was 1,5 ng/ml; in experiment [4], 0,8 ng/ml; in experiment [5] it was 0,75 ng/ml; in experiment [6] it was 1,5 ng/ml. Also, the “Relative Affinität zu Histamin-ITCB” value in experiment [7] was 1 ng/mL; in experiment [8], 0,5 ng/ml.
